Test results reported in patent US12692237B2, “Continuous method for preparing tricyanoimidazole” (UCHICAGO ARGONNE, LLC, priority 2022, dated 2026).

Legend:
[1] = Solvent screening: solubility of DCI-NH2 slurried in acetonitrile plus various solvents; type: physicochemical; settings: for Solubility, +100 uL solvent / Solubility, +200 uL water: +100 uL solvent
Procedure: Samples of DCI-NH2 (40 mg) were slurried in acetonitrile (0.25 ml) plus various solvents (0.05 ml).

[2] = as above; type: physicochemical; settings: 40 mg in MeCN:water = 0.5:0.2 mL
[3] = 40 mg in acetonitrile 0.25 ml + NMP 0.05 ml
[4] = 40 mg in acetonitrile 0.25 ml + Nitromethane 0.05 ml
[5] = 40 mg in acetonitrile 0.25 ml + Propylene carbonate 0.05 ml
[6] = 40 mg in acetonitrile 0.25 ml + Sulfolane 0.05 ml

Solubility ([1]; 40 mg in acetonitrile 0.25 ml + Diglyme 0.05 ml): soluble | Solubility ([1]; 40 mg in acetonitrile 0.25 ml + Dmso 0.05 ml): soluble | Solubility [1, 3]: partial | Solubility, +100 uL solvent [1, 3]: soluble | Solubility [1, 4]: No | Solubility, +100 uL solvent [1, 4]: No | Solubility, +200 uL water [1, 4]: No | Solubility [1, 5]: No | Solubility, +100 uL solvent [1, 5]: No | Solubility, +200 uL water [1, 5]: soluble | Solubility [1, 6]: No | Solubility, +100 uL solvent [1, 6]: No | Solubility, +200 uL water [1, 6]: soluble | Solubility [2]: soluble
SMILES: N#Cc1nc(N)[nH]c1C#N [DCI-NH2, 2-amino-1H-imidazole-4,5-dicarbonitrile]
